Laboratory results as given in patent US20230374038A1, “MODULATORS OF CYSTIC FIBROSIS TRANSMEMBRANE CONDUCTANCE REGULATOR” (VERTEX PHARMACEUTICALS INCORPORATED, priority 2020, published 2023).

Biological target: T1, CFTR (Homo sapiens, UniProt P13569, DEL508-508)
T1 construct: endogenous in cells; host or cells: primary human bronchial epithelial cells, F508del/MF genotype
Assay: HBE Assay: Ussing chamber assay of CFTR-mediated short-circuit currents in F508del/MF-HBE cells with 1 μM Ivacaftor
Type: cell-based
Conditions: 20% human serum; for HBE Activity at 10 μM: single fixed concentration of 10 μM; for EC50 / HBE Max Activity / HBE Activity at 10 μM (%) / Emax: 18-24 hours; for HBE Activity at 10 μM (%): single fixed concentration of 10 μM with 1 μM Ivacaftor; for Emax: compared to known Vertex corrector with 18 μM Tezacaftor and 1 μM Ivacaftor, read-out: HBE Max activity (%)
Summary of the method: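 F508del/MF-HBE cells at air-liquid interface >14 days were incubated 18-24 h at 37° C with corrector (concentration range or fixed 10 μM) plus 1 μM Ivacaftor in 20% human serum, compounds kept throughout. Ussing chamber, Vhold=0 mV, 37° C, apical amiloride 30 μM; ISC (μA/cm^2) from peak 20 μM forskolin response to steady state after CFTR inhibitor cocktail.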

[1] = range of concentrations with 1 μM Ivacaftor

T1 sequence (P13569 with tags, fused parts or gaps DEL508-508): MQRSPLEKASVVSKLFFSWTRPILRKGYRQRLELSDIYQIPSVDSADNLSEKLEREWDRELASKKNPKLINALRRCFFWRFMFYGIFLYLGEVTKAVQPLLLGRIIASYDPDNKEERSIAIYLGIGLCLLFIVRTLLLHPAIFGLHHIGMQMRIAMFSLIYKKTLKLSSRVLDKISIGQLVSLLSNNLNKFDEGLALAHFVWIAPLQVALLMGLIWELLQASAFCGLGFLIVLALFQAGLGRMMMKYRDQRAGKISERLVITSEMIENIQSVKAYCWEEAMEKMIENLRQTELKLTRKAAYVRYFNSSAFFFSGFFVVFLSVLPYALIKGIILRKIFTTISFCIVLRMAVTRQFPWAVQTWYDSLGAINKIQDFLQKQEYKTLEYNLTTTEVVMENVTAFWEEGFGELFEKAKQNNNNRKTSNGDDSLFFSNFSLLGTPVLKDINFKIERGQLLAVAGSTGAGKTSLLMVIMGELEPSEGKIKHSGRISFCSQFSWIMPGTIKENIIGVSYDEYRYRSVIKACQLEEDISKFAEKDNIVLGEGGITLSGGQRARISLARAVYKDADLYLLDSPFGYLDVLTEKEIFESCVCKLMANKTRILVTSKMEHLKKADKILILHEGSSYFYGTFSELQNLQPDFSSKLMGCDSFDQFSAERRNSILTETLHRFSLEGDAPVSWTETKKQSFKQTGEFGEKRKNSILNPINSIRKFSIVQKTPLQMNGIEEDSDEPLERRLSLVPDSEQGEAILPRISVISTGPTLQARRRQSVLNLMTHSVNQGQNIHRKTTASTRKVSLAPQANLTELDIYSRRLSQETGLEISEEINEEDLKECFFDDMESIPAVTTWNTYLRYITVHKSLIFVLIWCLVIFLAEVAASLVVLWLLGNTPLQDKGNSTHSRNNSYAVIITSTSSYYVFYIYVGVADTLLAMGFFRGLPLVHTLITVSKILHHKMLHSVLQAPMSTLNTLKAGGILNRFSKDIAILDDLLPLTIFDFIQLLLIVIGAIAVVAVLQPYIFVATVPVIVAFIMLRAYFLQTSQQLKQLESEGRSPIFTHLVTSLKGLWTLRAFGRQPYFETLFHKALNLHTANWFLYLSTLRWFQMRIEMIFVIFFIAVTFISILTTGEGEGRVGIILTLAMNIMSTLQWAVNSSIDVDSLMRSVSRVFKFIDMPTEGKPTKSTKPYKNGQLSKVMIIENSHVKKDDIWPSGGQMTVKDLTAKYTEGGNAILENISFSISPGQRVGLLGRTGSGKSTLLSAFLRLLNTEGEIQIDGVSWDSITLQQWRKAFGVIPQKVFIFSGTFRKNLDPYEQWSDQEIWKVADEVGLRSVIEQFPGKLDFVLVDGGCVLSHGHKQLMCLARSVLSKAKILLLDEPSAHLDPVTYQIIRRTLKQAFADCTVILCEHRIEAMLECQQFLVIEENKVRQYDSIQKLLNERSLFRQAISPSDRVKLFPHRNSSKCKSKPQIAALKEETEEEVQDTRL

Compound | EC50 (with 1 μM Ivacaftor) [nM] | HBE Max Activity (with 1 μM Ivacaftor) | further results
Cc1cccc(CC(C)C)c1-c1nc2nc(c1C)OC[C@@H](CC(C)(C)C)NC(=O)c1cccc(c1)S(=O)(=O)N2 (atropisomer, axis not shown) [Compound 226] | – | – | HBE Activity at 10 μM (with 1 μM Ivacaftor): +++ (+++ is >600%)
Cc1cccc(CC2CCCCC2)c1-c1nc2nc(c1C)OC[C@@H](CC(C)(C)C)N(Cc1ncc(N(C)CC(C)(C)C)cn1)C(=O)c1cccc(c1)S(=O)(=O)N2 (atropisomer, axis not shown) [Compound 282] | 1000 to 3000 | +++ (+++ is >600%) | –
Cc1cccc(CC(C)C)c1-c1nc2nc(c1C)OC[C@@H](CC(C)(C)C)N(Cc1ccc(N3CCOCC3)cn1)C(=O)c1cccc(c1)S(=O)(=O)N2 (atropisomer, axis not shown) [Compound 297] | < 1000 | +++ (+++ is >600%) | –
COCCN(C)c1ccc(CN2C(=O)c3cccc(c3)S(=O)(=O)Nc3nc(c(C)c(-c4c(C)cccc4CC(C)C)n3)OC[C@H]2CC(C)(C)C)nc1 (atropisomer, axis not shown) [Compound 292] | < 1000 | +++ (+++ is >600%) | –
Cc1cccc(COC(C)C)c1-c1nc2nc(c1C)OC[C@@H](CC(C)(C)C)N(Cc1ncc(N3CCC(C)(C)C3)cn1)C(=O)c1cccc(c1)S(=O)(=O)N2 (atropisomer, axis not shown; (M)) [Compound 220, (5M,11R)-11-(2,2-dimethylpropyl)-12-{[5-(3,3-dimethylpyrrolidin-1-yl)pyrimidin-2-yl]methyl}-7-methyl-6-{2-methyl-6-[(propan-2-yloxy)methyl]phenyl}-9-oxa-2λ^6-thia-3,5,12,19-tetraazatricyclo[12.3.1.14,8]nonadeca-1(17),4(19),5,7,14(18),15-hexaene-2,2,13-trione] | – | – | HBE Activity at 10 μM (with 1 μM Ivacaftor): ++ (++ is 30-60%)
Cc1cccc(CC2CCCCC2)c1-c1nc2nc(c1C)OC[C@@H](CC(C)(C)C)N(Cc1cccc(N(C(C)C)C(C)C)n1)C(=O)c1cccc(c1)S(=O)(=O)N2 (atropisomer, axis not shown) [Compound 256] | < 1000 | +++ (+++ is >600%) | –
Cc1cccc(CC2COC2)c1-c1nc2nc(c1C)OC[C@@H](CC(C)(C)C)N(Cc1ncc(OC(C)C)cn1)C(=O)c1cccc(c1)S(=O)(=O)N2 [Compound 347] | – | – | HBE Activity at 10 μM (%): +++ (+++ is >60%)
Cc1cccc(CC2CCCCC2)c1-c1nc2nc(c1C)OC[C@@H](CC(C)(C)C)N(Cc1ncc(N3CC(C)(C)C3)cn1)C(=O)c1cccc(c1)S(=O)(=O)N2 (atropisomer, axis not shown) [Compound 253] | < 1000 | +++ (+++ is >600%) | –
Cc1cccc(CC2CCCCC2)c1-c1nc2nc(c1C)OC[C@@H](CC(C)(C)C)N(Cc1ccc(C3CCOCC3)cn1)C(=O)c1cccc(c1)S(=O)(=O)N2 [Compound 257] | < 1000 | +++ (+++ is >600%) | –
Cc1cccc(CC2CCCCC2)c1-c1nc2nc(c1C)OC[C@@H](CC(C)(C)C)N(Cc1ccc(N3CCOCC3)cn1)C(=O)c1cccc(c1)S(=O)(=O)N2 (single isomer, unassigned) [Compound 206] | < 1000 | +++ (+++ is >600%) | –
Cc1cccc(CC2CCCC2)c1-c1nc2nc(c1C)OC[C@@H](CC(C)(C)C)N(Cc1ncc(N3CCOCC3)cn1)C(=O)c1cccc(c1)S(=O)(=O)N2 (atropisomer, axis not shown) [Compound 281] | < 1000 | +++ (+++ is >600%) | –
Cc1cccc(CC2CCCCC2)c1-c1nc2nc(c1C)OC[C@@H](CC(C)(C)C)NC(=O)c1cccc(c1)S(=O)(=O)N2 (atropisomer, axis not shown) [Compound 311] | < 1000 | +++ (+++ is >600%) | –
COc1ccc(CN2C(=O)c3cccc(c3)S(=O)(=O)Nc3nc(c(C)c(-c4c(C)cccc4CC4CCCCC4)n3)OC[C@H]2CC(C)(C)C)nc1 (atropisomer, axis not shown) [Compound 302] | < 1000 | +++ (+++ is >600%) | –
Cc1cccc(CC2CCCCC2)c1-c1nc2nc(c1C)OC[C@@H](CC(C)(C)C)N(Cc1ccc(N3CCOCC3)cn1)C(=O)c1cccc(c1)S(=O)(=O)N2 (single isomer, unassigned) [Compound 207] | < 1000 | +++ (+++ is >600%) | –
Cc1cccc(CC2CCCCC2)c1-c1nc2nc(c1C)OC[C@@H](CC(C)(C)C)N(Cc1ncc(N3CCC(C)(C)CC3)cn1)C(=O)c1cccc(c1)S(=O)(=O)N2 (atropisomer, axis not shown) [Compound 260] | < 1000 | +++ (+++ is >600%) | –
Cc1cccc(CC2CCCCC2)c1-c1nc2nc(c1C)OC[C@@H](CC(C)(C)C)N(Cc1ncc(OC(C)C)cn1)C(=O)c1cccc(c1)S(=O)(=O)N2 [Compound 234] | < 1000 | +++ (+++ is >600%) | –
Cc1cccc(C)c1-c1nc2nc(c1F)OC[C@@H](CC1CC1)N(Cc1ncc(OC3CCC3)cn1)C(=O)c1cccc(c1)S(=O)(=O)N2 [Compound 344] | – | – | EC50 [1]: 1000 to 3000 nM; Emax (with 1 μM Ivacaftor): > 60%

Compound | EC50 (with 1 μM Ivacaftor) [nM] | HBE Max Activity (with 1 μM Ivacaftor) | further results
Cc1cccc(CC2CCOCC2)c1-c1nc2nc(c1C)OC[C@@H](CC(C)(C)C)N(Cc1ccc(N3CCOCC3)cn1)C(=O)c1cccc(c1)S(=O)(=O)N2 (atropisomer, axis not shown) [Compound 275] | – | – | HBE Activity at 10 μM (with 1 μM Ivacaftor): +++ (+++ is >600%)
Cc1cccc(CC(C)C)c1-c1nc2nc(c1C)OC[C@@H](C)N(Cc1ncc(N3CCC(C)(C)C3)cn1)C(=O)c1cccc(c1)S(=O)(=O)N2 (atropisomer, axis not shown) [Compound 242] | < 1000 | +++ (+++ is >600%) | –
Cc1cccc(CC2CCCCC2)c1-c1nc2nc(c1C)OC[C@@H](CC(C)(C)C)N(Cc1ccc(C3CCCCC3)cn1)C(=O)c1cccc(c1)S(=O)(=O)N2 (atropisomer, axis not shown) [Compound 277] | < 1000 | +++ (+++ is >600%) | –
Cc1cccc(CC(C)(C)C)c1-c1nc2nc(c1C)OC[C@@H](CC(C)(C)C)N(Cc1ncc(OC3CCC3)cn1)C(=O)c1cccc(c1)S(=O)(=O)N2 (atropisomer, axis not shown) [Compound 353] | – | – | HBE Activity at 10 μM (%): +++ (+++ is >60%)
Cc1cccc(CC2CCCC2)c1-c1nc2nc(c1C)OC[C@@H](CC(C)(C)C)N(Cc1ccc(OC(C)C)cn1)C(=O)c1cccc(c1)S(=O)(=O)N2 (atropisomer, axis not shown) [Compound 267] | < 1000 | +++ (+++ is >600%) | –
Cc1cccc(CC(C)C)c1-c1nc2nc(c1C)OC[C@@H](CC(C)(C)C)N(Cc1ccc(N3CCOCC3)cn1)C(=O)c1cccc(c1)S(=O)(=O)N2 (atropisomer, axis not shown) [Compound 298] | < 1000 | +++ (+++ is >600%) | –
Cc1cccc(COC(C)C)c1-c1nc2nc(c1C)OC[C@@H](CC(C)(C)C)N(Cc1nccc(N(C)C(C)C)n1)C(=O)c1cccc(c1)S(=O)(=O)N2 (atropisomer, axis not shown) [Compound 229] | – | – | HBE Activity at 10 μM (with 1 μM Ivacaftor): +++ (+++ is >600%)
Cc1cccc(C)c1-c1nc2nc(c1C)OC[C@@H](CC(C)(C)C)N(Cc1cnc(C3CCOCC3)cn1)C(=O)c1cccc(c1)S(=O)(=O)N2 [Compound 331] | – | – | EC50 [1]: < 1000 nM; Emax (with 1 μM Ivacaftor): > 60%
Cc1cccc(C)c1-c1nc2nc(c1C)OC[C@@H](CC1CCC1)N(Cc1ncc(OC(C)C)cn1)C(=O)c1cccc(c1)S(=O)(=O)N2 [Compound 355] | – | – | HBE Activity at 10 μM (%): +++ (+++ is >60%)
Cc1cccc(C2CC2)c1-c1nc2nc(c1C)OC[C@@H](CC(C)(C)C)N(Cc1cnc(C3CCOCC3)cn1)C(=O)c1cccc(c1)S(=O)(=O)N2 (atropisomer, axis not shown) [Compound 320] | < 1000 | +++ (+++ is >600%) | –
Cc1cccc(C2CC2)c1-c1nc2nc(c1C)OC[C@@H](CC(C)(C)C)N(Cc1ncc(N3CCOCC3)cn1)C(=O)c1cccc(c1)S(=O)(=O)N2 (atropisomer, axis not shown; (P)) [Compound 216, (5P,11R)-6-(2-Cyclopropyl-6-methyl-phenyl)-11-(2,2-dimethylpropyl)-7-methyl-12-[(5-morpholinopyrimidin-2-yl)methyl]-2,2-dioxo-9-oxa-2λ^6-thia-3,5,12,19-tetrazatricyclo[12.3.1.14,8]nonadeca-1(18),4(19),5,7,14,16-hexaen-13-one] | < 1000 | +++ (+++ is >600%) | –
Cc1cccc(CC(C)C)c1-c1nc2nc(c1C)OC[C@@H](CC(C)C)N(Cc1ncc(N3CCC(C)(C)C3)cn1)C(=O)c1cccc(c1)S(=O)(=O)N2 (atropisomer, axis not shown) [Compound 241] | < 1000 | +++ (+++ is >600%) | –
CCc1cccc(C)c1-c1nc2nc(c1C)OC[C@@H](CC(C)(C)C)N(Cc1ccc(N3CCOCC3)cn1)C(=O)c1cccc(c1)S(=O)(=O)N2 (atropisomer, axis not shown) [Compound 287] | < 1000 | +++ (+++ is >600%) | –
Cc1cccc(C)c1-c1nc2nc(c1F)OC[C@@H](CC(C)C)N(Cc1ncc(OC(C)C)cn1)C(=O)c1cccc(c1)S(=O)(=O)N2 [Compound 337] | – | – | EC50 [1]: < 1000 nM; Emax (with 1 μM Ivacaftor): > 60%
COCCN(C)c1ccc(CN2C(=O)c3cccc(c3)S(=O)(=O)Nc3nc(c(C)c(-c4c(C)cccc4CC4CCCCC4)n3)OC[C@H]2CC(C)(C)C)nc1 (atropisomer, axis not shown) [Compound 290] | < 1000 | +++ (+++ is >600%) | –
Cc1cccc(C(C)C)c1-c1nc2nc(c1C)OC[C@@H](CC(C)(C)C)N(Cc1ncc(N3CCOCC3)cn1)C(=O)c1cccc(c1)S(=O)(=O)N2 (single isomer, unassigned) [Compound 209] | < 1000 | +++ (+++ is >600%) | –
